Source: patent US20200405699A1, “TREATING SICKLE CELL DISEASE WITH A PYRUVATE KINASE R ACTIVATING COMPOUND” (FORMA Therapeutics, Inc., priority 2018, published 2020)
Read-outs that look alike come from different tables or passages of the source. Each block holds one compound with its values, some of them ahead of it.

Legend:
[1] = biological target: PKR(G332S) (Homo sapiens, UniProt P30613, G332S); test: Luminescence Assay (Kinase Glo Plus), PKR G332S; format: biochemical; details: read-out: AC50 (PKRG332S)
Chain of PKR(G332S) (P30613 whole entry G332S): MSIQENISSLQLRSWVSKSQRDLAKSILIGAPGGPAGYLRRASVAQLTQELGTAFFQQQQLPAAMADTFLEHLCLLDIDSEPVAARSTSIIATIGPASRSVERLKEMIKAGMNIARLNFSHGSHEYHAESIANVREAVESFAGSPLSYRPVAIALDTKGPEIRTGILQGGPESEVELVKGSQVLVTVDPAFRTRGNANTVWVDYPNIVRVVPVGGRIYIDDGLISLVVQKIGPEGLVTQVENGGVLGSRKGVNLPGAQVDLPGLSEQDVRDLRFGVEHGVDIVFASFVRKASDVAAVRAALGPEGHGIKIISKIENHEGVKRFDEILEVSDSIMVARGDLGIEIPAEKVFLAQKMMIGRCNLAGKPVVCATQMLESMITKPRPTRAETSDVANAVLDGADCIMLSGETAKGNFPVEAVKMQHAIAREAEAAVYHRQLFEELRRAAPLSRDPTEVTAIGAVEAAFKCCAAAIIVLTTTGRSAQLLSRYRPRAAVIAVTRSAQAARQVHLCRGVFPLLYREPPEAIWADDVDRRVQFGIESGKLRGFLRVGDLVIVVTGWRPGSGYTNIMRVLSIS
Procedure: (§1) For each tested compound, the ability to activate PKR was determined using the following Luminescence Assay. The effect of phosphorylation of adenosine-5′-diphosphate (ADP) by PKR is determined by the Kinase Glo Plus Assay (Promega) in the presence or absence of FBP (D-fructose-1,6-diphosphate; BOC Sciences, CAS: 81028-91-3) as follows. Unless otherwise indicated, all reagents are purchased from Sigma-Aldrich. All reagents are prepared in buffer containing 50 mM Tris-HCl, 100 mM KCl, 5 mM MgCl2, and 0.01% Triton X100, 0.03% BSA, and 1 mM DTT. Enzyme and PEP (phosphoenolpyruvate) are added at 2× to all wells of an assay-ready plate containing serial dilutions of test compounds or DMSO vehicle. Final enzyme concentrations for PKR(wt), PKR(R510Q), and PKR(G332S) are 0.8 nM, 0.8 nM, and 10 nM respectively. Final PEP concentration is 100 μM. The Enzyme/PEP mixture is incubated with compounds for 30 minutes at RT before the assay is initiated with the addition of 2×ADP and KinaseGloPlus. Final concentration of ADP is 100 μM. […] For assays containing FBP, that reagent is added at 30 μM upon reaction initiation. Reactions are allowed to progress for 45 minutes at RT until luminescence is recorded by the BMG PHERAstar FS Multilabel Reader. The compound is tested in triplicate at concentrations ranging from 42.5 μM to 2.2 nM in 0.83% DMSO. AC50 measurements were obtained by the standard four parameter fit algorithm of ActivityBase XE Runner (max, min, slope and AC50). The AC50 value for a compound is the concentration (μM) at which the activity along the four parameter logistic curve fit is halfway between minimum and maximum activity.
(§2) As set forth in Tables 2 and 3 below and in FIG. 1, AC50 values are defined as follows: ≤0.1 μM (+++); >0.1 μM and ≤1.0 μM (++); >1.0 μM and ≤40 μM (+); >40 μM (0).

[2] = biological target: T1, PKR-R510Q (Homo sapiens, UniProt P30613, R510Q); test: Luminescence Assay (Kinase Glo Plus), PKR R510Q; format: biochemical; details: read-out: AC50 (PKRR510Q)
T1 sequence (P30613 whole entry R510Q): as the sequence (P30613 whole entry G332S) above, with S332G, R510Q counted along it
Procedure: as §1, §2

[3] = biological target: wt-PKR (Homo sapiens, UniProt P30613); test: Enzyme assay of Example 3 (kinetic parameters, activation), wt-PKR; format: biochemical
Chain of wt-PKR (P30613 whole entry): as the sequence (P30613 whole entry G332S) above, with S332G counted along it
Procedure: (§3) Tests were conducted in the presence and absence of fructose-1,6-bisphosphate (FBP), a known allosteric activator of PKR.

[4] = biological target: T1, PKR-R510Q; test: Enzyme assay of Example 3 (kinetic parameters, activation), PKR-R510Q; format: biochemical; details: for Vmax (normalized): 2 μM Compound 1, normalized within row
Procedure: as §3

[5] = biological target: T2, wt-PKR in mature human erythrocytes (Homo sapiens, UniProt P30613); test: PKR activation in human red blood cells ex vivo (Biovision Pyruvate Kinase Assay); format: cell-based; details: human RBCs
T2 construct: evaluated in purified RBCs purchased from Research Blood Components; host or cells: purified human red blood cells from donors
T2 sequence (P30613 whole entry): as the sequence (P30613 whole entry G332S) above, with S332G counted along it
Procedure: The activation of wt-PKR by Compound 1 in mature human erythrocytes ex vivo was evaluated in purified RBCs purchased from Research Blood Components. Cells treated with Compound 1 for 3 hr in glucose-containing media were washed, lysed, and assayed using a Biovision Pyruvate Kinase Assay (K709-100). The assay was repeated multiple times to account for donor-to-donor variability and the relatively narrow dynamic range.

[6] = biological target: T3, PKR in mouse RBCs (Mus musculus, UniProt P53657); test: PKR activation in mouse red blood cells; format: cell-based
T3 construct: Mouse RBCs were isolated fresh from whole blood using a Ficoll gradient; endogenous in cells; host or cells: mouse red blood cells isolated fresh from whole blood
T3 sequence (P53657 whole entry): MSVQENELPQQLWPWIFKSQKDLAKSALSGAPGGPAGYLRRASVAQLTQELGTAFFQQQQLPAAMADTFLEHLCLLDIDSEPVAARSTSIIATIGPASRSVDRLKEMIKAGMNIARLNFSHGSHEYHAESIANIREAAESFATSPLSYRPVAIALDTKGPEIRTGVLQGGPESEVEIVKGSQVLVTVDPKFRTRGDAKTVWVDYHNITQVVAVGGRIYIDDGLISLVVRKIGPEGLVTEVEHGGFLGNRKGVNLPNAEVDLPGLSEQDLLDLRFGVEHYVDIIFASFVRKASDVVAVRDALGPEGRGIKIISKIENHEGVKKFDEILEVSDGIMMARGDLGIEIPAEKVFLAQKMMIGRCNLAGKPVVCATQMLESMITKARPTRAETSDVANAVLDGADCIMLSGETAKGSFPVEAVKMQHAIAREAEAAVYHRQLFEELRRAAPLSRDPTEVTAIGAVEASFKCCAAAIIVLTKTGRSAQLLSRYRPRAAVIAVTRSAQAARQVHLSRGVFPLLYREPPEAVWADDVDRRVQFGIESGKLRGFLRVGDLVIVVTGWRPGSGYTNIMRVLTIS
Source text: Mouse RBCs were isolated fresh from whole blood using a Ficoll gradient and assayed with methods similar to those used in the human RBCs assays.

[7] = tested on: 2,3-DPG levels in whole blood; test: PK/PD study in wild type mice, 2,3-DPG levels in blood; format: in vivo, Balb/c mice; details: oral QD x7, doses ≥120 mg/kg (120 and 240 mg/kg), blood 24 h after dosing
Procedure: (§4) Two pharmacokinetic (PK)/phamacodynamic (PD) studies were conducted in Balb/c mice that were administered Compound 1 once daily by oral gavage (formulated in 10% Cremophor EL/10% PG/80% DI water) for 7 days (QD×7) at doses of 0 (vehicle), 3.75, 7.5, 15, 30, 60 mg/kg (Study 1); 0 (vehicle), 7.5, 15, 30, 60, 120, or 240 mg/kg (Study 2). On the 7th day, whole blood was collected 24 hours after dosing and snap frozen. Samples were later thawed and analyzed by LC/MS for 2,3-DPG and ATP levels.

[8] = PK/PD study in wild type mice, tolerability; format: in vivo; details: oral QD x7, both studies
Procedure: as §4

[9] = PK/PD study in wild type mice, exposure; format: in vivo, Balb/c mice; details: oral; for AUC(0-t): Balb/c, mouse, in vivo, read-out: AUC0-24
Procedure: as §4

[10] = tested on: 2,3-DPG blood levels; test: SAD/MAD study in healthy volunteers, blood 2,3-DPG levels (LC-MS/MS); format: in vivo, human
Source text: (§5) This is a first-in-human (FIH), Phase 1 study of Compound 1 that will characterize the safety, PK, and PD of Compound 1 after a single dose and after repeated dosing first in healthy adult volunteers and then in adolescents or adults with sickle cell disease. Initially, a dose range of Compound 1 in single ascending dose (SAD) escalation cohorts will be explored in healthy subjects. Enrollment of healthy subjects into 2-week multiple ascending dose (MAD) escalation cohorts will be initiated once the safety and PK from at least two SAD cohorts is available to inform the doses for the 2-week MAD portion of the study. The MAD cohorts will then run in parallel to the single dose cohorts. A single dose cohort is planned to understand food effects (FE) on the PK of Compound 1. […] Multiple dose studies in SCD subjects will then be initiated upon completion of MAD studies in healthy volunteers. Compound 1 will be administered in 25 mg and 100 mg tablets delivered orally.
(§6) Four healthy SAD cohorts were evaluated at doses of 200, 400, 700, and 1000 mg, and four healthy MAD cohorts received 200 to 600 mg total daily doses for 14 days at QD or BID dosing (100 mg BID, 200 mg BID, 300 mg BID, and 400 mg QD). In the food effect (FE) cohort, 10 healthy subjects received 200 mg of Compound 1 QD with and without food.
In the SAD cohorts, the subjects' blood 2,3-DPG levels were measured periodically after dosing by a qualified LC-MS/MS method for the quantitation of 2,3-DPG in blood. Decreased 2,3-DPG blood levels were observed 6 hours following a single dose of Compound 1 at all dose levels (earlier timepoints were not collected). Maximum decreases in 2,3-DPG levels generally occurred ˜24 hours after the first dose with the reduction sustained ˜48-72 hr postdose. Table 12 reports the median percentage change in 2,3-DPG blood levels, relative to baseline, measured over time in healthy volunteers after a single dose of Compound 1 (200 mg, 400 mg, 700 mg, or 1000 mg) or placebo. Accordingly, the median reduction in the concentration of 2,3-DPG, relative to baseline, was at least about 30% at all dose levels tested 24 hours after administration of the single dose.
In the MAD cohorts, the subjects' blood 2,3-DPG levels were measured periodically after dosing by a qualified LC-MS/MS method for the quantitation of 2,3-DPG in blood. The maximum decrease in 2,3-DPG on Day 14 was 55% from baseline (median). […] Table 13 reports the median percentage change in 2,3-DPG blood levels, relative to baseline, measured over time after the first dose on days 1 and 14 in healthy volunteers who received daily doses of Compound 1 (100 mg BID, 200 mg BID, or 300 mg BID) or placebo for 14 days. Accordingly, the median reduction in the concentration of 2,3-DPG, relative to baseline, was at least about 25% at all dose levels tested 24 hours after administration of the first dose on day 1 and at least about 40% at all dose levels tested 24 hours after administration of the first dose on day 14.
The following procedures are employed for the analysis of ATP and 2,3-DPG in human whole blood K2EDTA using a protein precipitation extraction procedure and analysis by LC-MS/MS.

[11] = tested on: ATP blood levels; test: SAD/MAD study in healthy volunteers, blood ATP levels (LC-MS/MS); format: in vivo, human; details: MAD cohorts, 60 hours after the last dose
Source text: This is a first-in-human (FIH), Phase 1 study of Compound 1 that will characterize the safety, PK, and PD of Compound 1 after a single dose and after repeated dosing first in healthy adult volunteers and then in adolescents or adults with sickle cell disease. Initially, a dose range of Compound 1 in single ascending dose (SAD) escalation cohorts will be explored in healthy subjects. Enrollment of healthy subjects into 2-week multiple ascending dose (MAD) escalation cohorts will be initiated once the safety and PK from at least two SAD cohorts is available to inform the doses for the 2-week MAD portion of the study. The MAD cohorts will then run in parallel to the single dose cohorts. […]
Four healthy SAD cohorts were evaluated at doses of 200, 400, 700, and 1000 mg, and four healthy MAD cohorts received 200 to 600 mg total daily doses for 14 days at QD or BID dosing (100 mg BID, 200 mg BID, 300 mg BID, and 400 mg QD). […]
In the MAD cohorts, the subjects' blood ATP levels were measured on day 14 by a qualified LC-MS/MS method for the quantitation of ATP in blood. […] Table 14 reports the median percentage change in blood ATP levels, relative to baseline, measured over time after the first dose on day 14 in healthy volunteers who received daily doses of Compound 1 (100 mg BID, or 200 mg BID) or placebo for 14 days. […]

[12] = SAD/MAD study in healthy volunteers, safety; format: in vivo, human; details: SAD and MAD cohorts of healthy volunteers
Source text: as §5, with “orally. Four healthy SAD cohorts were evaluated at doses of 200, 400, 700, and 1000 mg, and four healthy MAD cohorts received 200 to 600 mg total daily doses for 14 days at QD or BID dosing (100 mg BID, 200 mg BID, 300 mg BID, and 400 mg QD). In the food effect (FE) cohort, 10 healthy subjects received 200 mg of Compound 1 QD with and without food.” for “orally.”

[13] = SAD/MAD/food effect study in healthy volunteers, pharmacokinetics; format: in vivo, human
Source text: as §5, §6

[14] = biological target: PKR(wt) (Homo sapiens, UniProt P30613); test: Luminescence Assay (Kinase Glo Plus), PKR wild type; format: biochemical
Chain of PKR(wt) (P30613 whole entry): as the sequence (P30613 whole entry G332S) above, with S332G counted along it
Procedure: as §1, with “AC50 measurements were obtained by the standard four parameter fit algorithm of ActivityBase XE Runner (max, min, slope and AC50). The AC50 value for a compound is the concentration (μM) at which the activity along the four parameter logistic curve fit is halfway between minimum and maximum activity.” left out

[15] = PEP at or below Km, rate of ATP formation

SMILES: O=C([C@H](CO)c1ccccc1)N1CC2=C(C1)CN(S(=O)(=O)c1cnc3c(c1)OCCO3)C2 (single isomer, unassigned) [Compound 1]
AC50 [1]: 100 to 1000 nM
AC50 [2]: ≤ 100 nM
Vmax (normalized) ([3]; 30 μM FBP, 2 μM Compound 1, normalized within row): 1.16
Vmax (normalized) ([3]; No FBP, 2 μM Compound 1, normalized to 1.00 relative to other values in same row): 1.14
AC50 ([3]; PEP at or below Km): < 50 nM
Maximum-fold Activation [3, 15]: <2.0
Vmax (normalized) ([4]; 30 μM FBP): 1.29
Vmax (normalized) ([4]; No FBP): 1.56
AC50 ([4]; PEP at or below Km): < 100 nM
Maximum-fold Activation [4, 15]: <3.0
EC50 ([5]; 3 hr treatment, individual replicates): < 50 nM
Max-Min (%), Mean (mean maximum activation increase) ([5]; mean of replicates): <100%
Emax ([5]; mean of replicates, read-out: Max-Min (%), Mean (mean maximum activation increase)): < 100%
EC50 ([6]; individual replicates, read-out: EC50): < 125 nM
EC50 ([6]; mean of replicates, read-out: EC50 (nM), Mean): < 125 nM
Reduction of 2,3-DPG levels [7]: > 30%
Adverse clinical signs [8]: No adverse clinical signs were observed
Body weight change compared with vehicle group [8]: no differences in body weight change
AUC(0-t) ([9]; doses ≥60 mg/kg): > 4000 ng·h/mL
AUC(0-t) ([9]; doses ≥120 mg/kg): > 5200 ng·h/mL
Dose dependence of exposure [9]: dose-proportional
2,3-DPG levels after final dose ([10]; MAD cohorts, 72 hours after the final dose on Day 14): had not returned to baseline levels
Mean maximum reduction in concentration of 2,3-DPG ([10]; MAD study): at least 50%
Median reduction in concentration of 2,3-DPG relative to baseline ([10]; MAD, all dose levels, 24 hours after first dose on day 1): at least 25%
Median reduction in concentration of 2,3-DPG relative to baseline ([10]; MAD, all dose levels, 24 hours after first dose on day 14): at least 40%
Time of maximum decrease in 2,3-DPG levels after first dose ([10]; SAD cohorts): ~24 h
Time postdose to which 2,3-DPG reduction was sustained ([10]; SAD cohorts): 48 to 72 h
Mean maximum reduction in concentration of 2,3-DPG ([10]; SAD study): at least 40%
Median reduction in concentration of 2,3-DPG relative to baseline ([10]; all single dose levels tested, 24 hours after administration): at least 30%
PD half-life (2,3-DPG response) ([10]; healthy volunteers, calculated): ~20 h
ATP levels relative to baseline after last dose [11]: remained elevated
Serious adverse events / AEs leading to withdrawal [12]: No serious adverse events (SAEs) or AEs leading to withdrawal were reported
PK linearity, multiple doses ([13]; 100-300 mg BID, 400 mg QD): linear PK
Tmax ([13]; human, plasma, healthy volunteers, oral, postdose, read-out: Median Tmax): 1 h
Dose dependence of single dose exposure ([13]; single doses ≥700 mg): greater than dose-proportional

AC50 [1]: 1000 to 40000 nM
AC50 [2]: 1000 to 40000 nM
AC50 [14]: 1000 to 40000 nM
SMILES: O=C([C@@H](CO)c1ccccc1)N1CC2=C(C1)CN(S(=O)(=O)c1cnc3c(c1)OCCO3)C2 (single isomer, unassigned) [Compound 2]
